Assay results taken from US10501575B2, “Biomimetic fluoroscopic films” (THE BOARD OF REGENTS OF THE UNIVERSITY OF TEXAS SYSTEM, priority 2015, dated 2019).

Columns and labels:
[1] = system: IL-1β; assay: Anti-inflammatory effect, IL-1β ELISA in LPS stimulated RAW 264.7 cells; assay type: cell-based, mouse; conditions: for Cytokine Concentration IL-1β: LPS, 24 h
Description: (§1) Therapeutic effect. […] PTNP concentrations were compared to free dexamethasone in media, which simulates systemic delivery. The experimental design included the expected concentrations of dexamethasone released from PTNP groups.

[2] = system: TNF-α; assay: Anti-inflammatory effect, TNF-α ELISA in LPS stimulated RAW 264.7 cells; assay type: cell-based, mouse; conditions: for Cytokine Concentration TNF-α: LPS, 24 h
Description: as §1

C[C@@H]1C[C@H]2[C@@H]3CCC4=CC(=O)C=C[C@]4(C)[C@@]3(F)[C@@H](O)C[C@]2(C)[C@@]1(O)C(=O)CO [Free DEX, dexamethasone]
concentration required to maintain IL-1β control concentration levels in the presence of stimuli ([1]; ELISA): 0.23 mg/mL | Cytokine Concentration IL-1β ([1]; Free DEX 0.10 mg/mL): 1009 ± 7 pg/mL | Cytokine Concentration IL-1β ([1]; Free DEX 0.50 mg/mL): 759 ± 7 pg/mL | Cytokine Concentration IL-1β ([1]; Free DEX 1.00 mg/mL): 491 ± 2 pg/mL | Cytokine Concentration IL-1β ([1]; Free DEX 2.00 mg/mL): 489 ± 4 pg/mL | concentration required to maintain TNF-α control concentration levels in the presence of stimuli ([2]; ELISA): 0.23 mg/mL | Cytokine Concentration TNF-α ([2]; Free DEX 0.10 mg/mL): 78 ± 3 pg/mL | Cytokine Concentration TNF-α ([2]; Free DEX 0.50 mg/mL): 66 ± 3 pg/mL | Cytokine Concentration TNF-α ([2]; Free DEX 1.00 mg/mL): 50 ± 3 pg/mL | Cytokine Concentration TNF-α ([2]; Free DEX 2.00 mg/mL): 35 ± 6 pg/mL | TNF-α versus control ([2]; free dexamethasone 0.10-0.50 mg/mL): lowered TNF-α but not enough to be comparable to the control | TNF-α concentrations versus control ([2]; free dexamethasone in media 1 and 2 mg/mL): lowered TNF-α concentrations to control levels
